Legend:
[1] = Proton relaxivity R1 in bovine plasma (Minispec P 20); assay type: physicochemical; settings: in plasma at 40° C., magnetic field strength 0.47 Tesla
Procedure: As a third criterion for especially suitable MR contrast media, the proton relaxivity (relaxivity) in plasma (R1) at 40° C. and a field strength of 0.47 Tesla is used. The relaxivity, which is indicated in [l/mmol*s], is the quantitative measurement for the shortening of the relaxation time T1 of the protons. For the purpose according to the invention, the relaxivity must be as high as possible and must be >10 l/mmol*s, preferably >13 l/mmol*s, especially preferably >15 l/mmol*s.
The relaxivity R1 [l/mmol*s] of the MR contrast media according to the invention was determined with the Minispec P 20 device of the Bruker Company. The measurements were made at 40° C. and a field strength of 0.47 Tesla. 8 measuring points were recorded in each T1 sequence (180°-T1-90°, inversion recovery). As a medium, bovine plasma of the Kraeber Company was used. The contrast medium concentrations [mmol/l] in the preparations were between 0.30 and 1.16.

[2] = Critical micelle formation concentration (CMC) by tensiometry; assay type: physicochemical
Procedure: In aqueous systems, these amphiphilic molecules show the properties that are characteristic of standard surfactants (such as, e.g., sodium dodecyl sulfate, SDS). Thus, they reduce the surface tension of the water. By tensiometry, the so-called CMC (critical micelle formation concentration in mol/l) can be determined. To this end, the surface tension is determined based on the concentration of the substance to be measured. The CMC can be calculated from the course of the surface tension (c) function that is obtained. The critical micelle formation concentration of the compounds according to the invention should be <10^−3 mol/l, preferably <10^−4 mol/l.
(§1) Both the determination of CMC and the photon correlation spectroscopy are described in H.-D. Dorfler, “Grenzflächen- and Kolloidchemie [Interface and Colloid Chemistry],” Weinheim, New York, Basel, Cambridge, Tokyo, VSH 1994.

[3] = Hydrodynamic micelle diameter 2 Rh by photon-correlation spectroscopy; assay type: physicochemical
Source text: The amphiphilic compounds according to the invention are combined in solution and are present as aggregates. The size (2 Rh) of such aggregates (e.g., micelles, rods, oblates, etc.) can be determined with the aid of photon-correlation spectroscopy (PCS).
As a second criterion for preferably usable metal complexes, therefore, the hydrodynamic micelle diameter 2 Rh, which must be >1 nm, is used. Those perfluoroalkyl-containing metal complexes, whose 2 Rh≧3 nm, quite especially preferably >4 nm, are especially suitable according to the invention.
as §1

[4] = system: amyloid plaques; test: MRT visualization of Alzheimer lesions after intravenous administration in APP-23 mice; assay type: in vivo; settings: 0.5 mmol of Gd/kg i.v., up to 60 minutes after administration, 7T, localization confirmed by Puchtler's Congo red stain
Procedure: MRT Visualization of Alzheimer Lesions After Intravenous Administration of Contrast Medium in APP-23 Mice
The images of FIG. 1 show MR images of the brain before as well as up to 60 minutes after intravenous administration of 0.5 mmol of Gd/kg of body weight of metal complex 13 (MK13) in APP-23 mice (mice with genetically-induced Alzheimer's disease). […] The localization of the amyloid-containing structures was confirmed by means of Puchtler's Congo red stain. With this test, the suitability of the compounds according to the invention as in-vivo markers for amyloid plaques in the brains of mice with Alzheimer's disease could be shown.

Compound	R1 (Relaxivity) [1] [L/mmol/s]	CMC (Critical Micelle Formation Concentration) [2] [mol/L]	2 Rh (Hydrodynamic Micelle Diameter) [3] [nm]	MR signal in the amyloid plaques of the diseased brains (T1-weighted spin echo images) [4]
CC(C(=O)NCC(=O)NCCCC[C@H](NC(=O)CO[C@H]1O[C@H](CO)[C@@H](O)[C@H](O)[C@@H]1O)C(=O)N1CCN(S(=O)(=O)C(F)(F)C(F)(F)C(F)(F)C(F)(F)C(F)(F)C(F)(F)C(F)(F)C(F)(F)F)CC1)N1CCN(CC(=O)[O-])CCN(CC(=O)[O-])CCN(CC(=O)[O-])CC1.[Gd+3] (stereo partly drawn) [MK 13, gadolinium complex of 6-N-[1,4,7-tris(carboxylatomethyl)-1,4,7,10-tetraazacyclododecane-10-N-(pentanoyl-3-aza-4-oxo-5-methyl-5-yl)]-2-N-[1-O-α-D-carbonylmethyl-manno-pyranose]-L-lysine-[1-(4-perfluorooctylsulfonyl)-piperazine]-amide]	15.9	2.5e-06	4.4	strong signal increase
gadolinium complex of 1,4,7-tris{1,4,7-tris(N-(carboxylatomethyl)-10-[N-1-methyl-3,6-diaza-2,5,8-trioxooctane-1,8-diyl)]-1,4,7,10-tetraazacyclododecane, Gd complex}-10-[N-2H, 2H, 4H, 4H, 5H, 5H-3-oxa-perfluoro-tridecanoyl]-1,4,7,10-tetraazacyclododecane [MK 12]	19.5	0.00089	2.2	
